Results: US20100216777A1, “AMINOPYRAZINE ANALOGS FOR TREATING GLAUCOMA AND OTHER RHO KINASE-MEDIATED DISEASES AND CONDITIONS” (ALCON, INC., priority 2004, published 2010)
Structures can show the parent of a compound that is named as a salt.

Target: T1, Human Recombinant ROCK-II Enzyme (ROKα/ROCK-II, aa 11-552) (Homo sapiens, UniProt O75116)
T1 construct: (ROKα/ROCK-II, (aa 11-552), human active); purchased Upstate Biotechnology Co., Lake Placid, N.Y. 14-451
Assay: ROCK-II inhibition, fluorescence polarization assay (IMAP ROCK II kit)
Type: biochemical
Details: substrate 200 nM, ATP 10 μM, 60 min at 23° C., read-out: Enzyme Inhibition Constants (IC50) against Human Recombinant ROCK-II Enzyme
Experimental: The ability of certain compounds of Formula (I) to inhibit rho kinase was evaluated by means of in vitro assays. Human recombinant Rho kinase (ROKα/ROCK-II, (aa 11-552), human active, catalog #14-451, Upstate Biotechnology Co., Lake Placid, N.Y.), MgCl2/ATP cocktail, and enzyme substrate (Upstate) are used.
The fluorescence polarization assays are performed using a Biomek 2000 Robotic Workstation (Beckman Instruments, Palo Alto, Calif.) in a 96-well plate format. The assays are performed utilizing the IMAP ROCK II kit (Molecular Devices, Sunnyvale, Calif.) as follows. Substrate and ATP concentrations used are 200 nM and 10 μM, respectively, while the enzyme concentration is 3.96×10^−3 units per well. The substrate, enzyme, and ATP dilutions are made with the reaction buffer provided by the vendor. Test compounds are diluted in 10:10 DMSO-ethanol (vol/vol). For the actual assays, the various components are added into black, clear bottom, 96-well plates (Costar, Corning, N.Y.) in a final volume of 20 μl per well. After the enzyme reaction (60 min at 23° C.), 60 μl of the binding solution (IMAP kit, provided by vendor) is added per well and incubated for an additional 30 minutes in the dark at 23° C. Fluorescence polarization of the reaction mixtures is then measured on the Analyst™ HT instrument (Molecular Devices, Sunnyvale, Calif.).
The data generated are then analyzed using a non-linear, iterative, sigmoidal-fit computer program purchased from IDBS (Emeryville, Calif.) and as previously described (Sharif et al., J. Pharmacol. Exp. Ther. 286:1094-1102, 1998; Sharif et al., J. Pharmacol. Expt. Ther. 293:321-328, 2000; Sharif et al., J. Ocular Pharmacol. Ther. 18:141-162, 2002a; Sharif et al., J. Pharmac. Pharmacol. 54:539-547, 2002b) to generate the inhibition constants for the test compounds.

T1 sequence (O75116 11-552): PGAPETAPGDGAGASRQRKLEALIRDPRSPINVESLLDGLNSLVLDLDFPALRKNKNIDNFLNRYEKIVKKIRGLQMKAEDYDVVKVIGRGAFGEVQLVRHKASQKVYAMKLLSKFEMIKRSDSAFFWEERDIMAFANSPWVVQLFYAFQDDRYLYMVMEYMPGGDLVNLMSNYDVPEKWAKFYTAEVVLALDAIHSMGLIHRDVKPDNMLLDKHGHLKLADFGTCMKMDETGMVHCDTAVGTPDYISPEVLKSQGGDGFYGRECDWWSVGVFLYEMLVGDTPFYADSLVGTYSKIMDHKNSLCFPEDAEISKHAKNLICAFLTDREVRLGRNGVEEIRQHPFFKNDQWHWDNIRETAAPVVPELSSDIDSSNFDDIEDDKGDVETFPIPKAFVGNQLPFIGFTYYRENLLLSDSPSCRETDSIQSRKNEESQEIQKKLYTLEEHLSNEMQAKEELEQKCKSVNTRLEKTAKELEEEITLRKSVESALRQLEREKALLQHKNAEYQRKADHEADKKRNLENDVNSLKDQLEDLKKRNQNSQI

`CN1CCCN(c2nc(-c3ccncc3)cnc2N)CC1` [Example 1, 3-(4-Methyl-1,4-diazepan-1-yl)-5-(pyridin-4-yl)pyrazin-2-amine] and `CNc1ncc(-c2ccncc2)nc1N1CCCN(C)CC1` [Example 25, N-Methyl-3-(4-methyl-1,4-diazepan-1-yl)-5-(pyridin-4-yl)pyrazin-2-amine hydrochloride] are within 1.5-fold of each other in IC50: 3 nM for the first, 2.4 nM for the second.

First: Cc1cnccc1-c1cnc(N)c(N2CCCN(C)CC2)n1 [Example 2, 3-(4-Methyl-1,4-diazepan-1-yl)-5-(3-methylpyridin-4-yl)pyrazin-2-amine hydrochloride]
Second: CN1CCCN(c2nc(-c3ccnc4[nH]ccc34)cnc2N)CC1 [Example 4, 3-(4-Methyl-1,4-diazepan-1-yl)-5-(1H-pyrrolo[2,3-b]pyridin-4-yl)pyrazin-2-amine]
The IC50 of the first is 110-fold higher: 58 nM for the first, 0.53 nM for the second.

Compared with `CN1CCCN(c2nc(-c3cc[nH]n3)cnc2N)CC1` [Example 3, 3-(4-Methyl-1,4-diazepan-1-yl)-5-(1H-pyrazol-3-yl)pyrazin-2-amine], `CN1CCCN(c2nc(-c3ccnc(N)c3)cnc2N)CC1` [Example 8, 5-(2-Aminopyridin-4-yl)-3-(4-methyl-1,4-diazepan-1-yl)pyrazin-2-amine trihydrochloride] is 19-fold higher in IC50: 2.8 nM for the first, 53 nM for the second.

First: CN1CCCN(c2nc(-c3cccc4[nH]ncc34)cnc2N)CC1 [Example 5, 5-(1H-indazol-4-yl)-3-(4-methyl-1,4-diazepan-1-yl)pyrazin-2-amine dihydrochloride]
Second: CN1CCCN(c2nc(-c3ccc4[nH]ncc4c3)cnc2N)CC1 [Example 7, 5-(1H-Indazol-5-yl)-3-(4-methyl-1,4-diazepan-1-yl)pyrazin-2-amine dihydrochloride]
The IC50 of the first is 26-fold higher: 25 nM for the first, 0.95 nM for the second. The second is the more potent here.

Compared with `Nc1ncc(-c2ccncc2)nc1N(CCO)CCO` [Example 9, 2,2′-(3-Amino-6-(pyridin-4-yl)pyrazin-2-ylazanediyl)diethanol], `Nc1ncc(-c2ccncc2)nc1N1CCN(CCCO)CC1` [Example 24, 3-(4-(3-Amino-6-(pyridin-4-yl)pyrazin-2-yl)piperazin-1-yl)propan-1-ol] is 13-fold lower in IC50: 22 nM for the first, 1.7 nM for the second. The second is the more potent here.

Compared with `Nc1ncc(-c2ccncc2)nc1N1CCCCC1` [Example 10, 3-(Piperidin-1-yl)-5-(pyridin-4-yl)pyrazin-2-amine], `Nc1ncc(-c2ccncc2)nc1N1CCC(O)CC1` [Example 12, 1-(3-Amino-6-(pyridin-4-yl)pyrazin-2-yl)piperidin-4-ol] is 8.6-fold lower in IC50: 59 nM for the first, 6.9 nM for the second.

First: Nc1ncc(-c2ccncc2)nc1N1CCC(CO)CC1 [Example 11, (1-(3-Amino-6-(pyridin-4-yl)pyrazin-2-yl)piperidin-4-yl)methanol]
Second: CN(C)C1CCN(c2nc(-c3ccncc3)cnc2N)CC1 [Example 13, 3-(4-(Dimethylamino)piperidin-1-yl)-5-(pyridin-4-yl)pyrazin-2-amine]
The IC50 of the first is 2.7-fold higher: 17 nM for the first, 6.4 nM for the second.

Compared with `CN1CCC(Nc2nc(-c3ccncc3)cnc2N)CC1` [Example 14, N,N-(1-Methylpiperidin-4-yl)-6-(pyridin-4-yl)pyrazine-2,3-diamine], `CN1CCCC(Nc2nc(-c3ccncc3)cnc2N)C1` (stereo not shown) [Example 15, N,N-(1-Methylpiperidin-3-yl)-6-(pyridin-4-yl)pyrazine-2,3-diamine] is 1.6-fold higher in IC50: 3.5 nM for the first, 5.5 nM for the second.

First: Nc1ncc(-c2ccncc2)nc1NC1CCNCC1 [Example 16, N,N-2-(Piperidin-4-yl)-6-(pyridin-4-yl)pyrazine-2,3-diamine]
Second: Nc1ncc(-c2ccncc2)nc1NC1CCNC1 (stereo not shown) [Example 19, 6-(Pyridin-4-yl)-N^2-(pyrrolidin-3-yl)pyrazine-2,3-diamine]
The IC50 of the first is 13-fold higher: 0.82 nM for the first, 0.064 nM for the second.

First: Nc1ncc(-c2ccncc2)nc1NC1CCCNC1 (stereo not shown) [Example 17, N,N-(Piperidin-3-yl)-6-(pyridin-4-yl)pyrazine-2,3-diamine]
Second: CNc1ncc(-c2ccncc2)nc1NC1CCCNC1 (stereo not shown) [Example 26, N^2-Methyl-N^3-(piperidin-3-yl)-5-(pyridin-4-yl)pyrazine-2,3-diamine hydrochloride]
The IC50 of the first is 10-fold lower: 0.21 nM for the first, 2.1 nM for the second. The first is the more potent here.

Compared with `CN1CCC(N(C)c2nc(-c3ccncc3)cnc2N)CC1` [Example 18, N,N-Methyl-N,N-(1-methylpiperidin-4-yl)-6-(pyridin-4-yl)pyrazine-2,3-diamine], `CN1CCC(Oc2nc(-c3ccncc3)cnc2N)CC1` [Example 20, 3-(1-Methylpiperidin-4-yloxy)-5-(pyridin-4-yl)pyrazin-2-amine] is 1.7-fold lower in IC50: 9.6 nM for the first, 5.6 nM for the second.

First: CN1CCCC(Oc2nc(-c3ccncc3)cnc2N)C1 (stereo not shown) [Example 21, 3-(1-Methylpiperidin-3-yloxy)-5-(pyridin-4-yl)pyrazin-2-amine]
Second: Nc1ncc(-c2ccncc2)nc1OC1CCCNC1 (stereo not shown) [Example 23, 3-(Piperidin-3-yloxy)-5-(pyridin-4-yl)pyrazin-2-amine]
The IC50 of the first is 6.2-fold higher: 4.2 nM for the first, 0.68 nM for the second.

`Nc1ncc(-c2ccncc2)nc1OC1CCNCC1` [Example 22, 3-(Piperidin-4-yloxy)-5-(pyridin-4-yl)pyrazin-2-amine] and `CN(C)c1ncc(-c2ccncc2)nc1OC1CCNCC1` [Example 35, N,N-Dimethyl-3-(piperidin-4-yloxy)-5-(pyridin-4-yl)pyrazin-2-amine hydrochloride] are within 1.5-fold of each other in IC50: 1.1 nM for the first, 0.94 nM for the second.

First: COCCNc1ncc(-c2ccncc2)nc1N1CCCN(C)CC1 [Example 27, N-(2-Methoxyethyl)-3-(4-methyl-1,4-diazepan-1-yl)-5-(pyridin-4-yl)pyrazin-2-amine hydrochloride]
Second: CN1CCCN(c2nc(-c3ccncc3)cnc2NCCO)CC1 [Example 28, 2-(3-(4-Methyl-1,4-diazepan-1-yl)-5-(pyridin-4-yl)pyrazin-2-ylamino)ethanol hydrochloride]
The IC50 of the first is 1.7-fold higher: 5.2 nM for the first, 3 nM for the second. The second is the more potent here.

Going from `COCCN(C)c1ncc(-c2ccncc2)nc1N1CCCN(C)CC1` [Example 29, N-(2-Methoxyethyl)-N-methyl-3-(4-methyl-1,4-diazepan-1-yl)-5-(pyridin-4-yl)pyrazin-2-amine hydrochloride] to `CN1CCCN(c2nc(-c3ccncc3)cnc2N(C)C)CC1` [Example 32, N,N-dimethyl-3-(4-methyl-1,4-diazepan-1-yl)-5-(pyridin-4-yl)pyrazin-2-amine hydrochloride], the IC50 falls from 45 nM to 1.7 nM (26-fold).

Going from `CN(C)c1ncc(-c2ccncc2)nc1N1CCN(CCO)CC1` [Example 30, 2-(4-(3-(Dimethylamino)-6-(pyridin-4-yl)pyrazin-2-yl)piperazin-1-yl)ethanol hydrochloride] to `CN(C)c1ncc(-c2ccnc3[nH]ccc23)nc1N1CCN(CCO)CC1` [Example 31, 2-(4-(3-(Dimethylamino)-6-(1H-pyrrolo[2,3-b]pyridin-4-yl)pyrazin-2-yl)piperazin-1-yl)ethanol], the IC50 falls from 0.3 nM to 0.053 nM (5.7-fold).

First: CN1CCCN(c2nc(-c3ccnc4[nH]ncc34)cnc2N(C)C)CC1 [Example 33, N,N-Dimethyl-3-(4-methyl-1,4-diazepan-1-yl)-5-(1H-pyrazolo[3,4-b]pyridin-4-yl)pyrazin-2-amine dihydrochloride]
Second: CN1CCCN(c2nc(-c3ccnc4[nH]ccc34)cnc2N2CCCC2)CC1 [Example 39, 4-(6-(4-Methyl-1,4-diazepan-1-yl)-5-(pyrrolidin-1-yl)pyrazin-2-yl)-1H-pyrrolo[2,3-b]pyridine dihydrochloride]
The IC50 of the first is 3.4-fold higher: 0.54 nM for the first, 0.16 nM for the second.

Compared with `CN(C)c1ncc(-c2ccncc2)nc1NC1CCCNC1` (stereo not shown) [Example 34, N,N-(Piperidin-3-yl)-6-(pyridin-4-yl)pyrazine-2,3-diamine], `CN(C)CCCOc1nc(-c2ccncc2)cnc1N(C)C` [Example 36, 3-(3-(Dimethylamino)propoxy)-N,N-dimethyl-5-(pyridin-4-yl)pyrazin-2-amine hydrochloride] is 3.5-fold higher in IC50: 3.1 nM for the first, 11 nM for the second.

Going from `CCN(CC)c1ncc(-c2ccncc2)nc1N1CCCN(C)CC1` [Example 37, N,N-Diethyl-3-(4-methyl-1,4-diazepan-1-yl)-5-(pyridin-4-yl)pyrazin-2-amine hydrochloride] to `CN1CCCN(c2nc(-c3ccncc3)cnc2N2CCCC2)CC1` [Example 38, 1-Methyl-4-(6-(pyridin-4-yl)-3-(pyrrolidin-1-yl)pyrazin-2-yl)-1,4-diazepane hydrochloride], the IC50 falls from 6.7 nM to 0.33 nM (20-fold). The second is the more potent here.

Compared with `c1cc(-c2cnc(N3CCCC3)c(N3CCCNCC3)n2)ccn1` [Example 40, 1-(6-(Pyridin-4-yl)-3-(pyrrolidin-1-yl)pyrazin-2-yl)-1,4-diazepane hydrochloride], `c1cc2[nH]ncc2cc1-c1cnc(N2CCCC2)c(N2CCCNCC2)n1` [Example 42, 5-(6-(1,4-Diazepan-1-yl)-5-(pyrrolidin-1-yl)pyrazin-2-yl)-1H-indazole hydrochloride] is 10-fold lower in IC50: 0.33 nM for the first, 0.033 nM for the second.
